Values after ≈ are worked out from the molar mass of the structure shown.
The molecules below were run on Entamoeba histolytica (assay: Antiamoebic activity against Entamoeba histolytica). Conditions: Entamoeba histolytica; read-out: IC50.
Type: functional, organism-based

Row | Compound | IC50 [µg/mL]
1 | O=C(O)C1=CO[C@H](O[C@@H]2O[C@H](CO)[C@@H](O)[C@H](O)[C@H]2O)[C@H]2[C@@H]1C=C[C@@]21C=C(C(O)c2ccc(O)cc2)C(=O)O1 (stereo not given in full) [GAERTNERIC ACID] | 7.1 (≈ 13.3 µM)
2 | COC(=O)C1=CO[C@H](O[C@@H]2O[C@H](CO)[C@@H](O)[C@H](O)[C@H]2O)[C@H]2[C@@H]1C=C[C@@]21C=C(C(O)c2ccc(O)cc2)C(=O)O1 (stereo not given in full) [GAERTNEROSIDE] | 4.3 (≈ 7.84 µM)
3 | O=c1c(O)c(-c2ccccc2)oc2cc(O)cc(O)c12 [GALANGIN] | 159 (≈ 587 µM)
4 | COC(=O)c1cc(O)c(O)c(O)c1 [GALLIC ACID METHYL ESTER] | 22.6 (≈ 123 µM)
5 | O=c1cc(-c2ccc(O)c(O)c2)oc2cc(O[C@@H]3O[C@H](CO)[C@@H](O)[C@H](O)[C@H]3O)cc(O)c12 [GALUTEOLIN] | 44.7 (≈ 99.7 µM)
6 | Oc1ccc([C@]23Oc4cc(O)cc(O)c4[C@H](c4c(cc(O)c5c4O[C@H](c4cc(O)c(O)c(O)c4)[C@@H](O)C5)O2)[C@H]3O)cc1 [GERANIN C] | 52 (≈ 90.2 µM)
7 | Oc1ccc([C@H]2Oc3c(c(O)cc4c3[C@H]3c5c(O)cc6c(c5O[C@@](c5ccc(O)cc5)(O4)[C@@H]3O)[C@H]3c4c(O)cc(O)cc4O[C@@](c4ccc(O)cc4)(O6)[C@H]3O)C[C@@H]2O)cc1 [GERANIN D] | 28.6 (≈ 35.1 µM)
8 | CC[C@](C)(O)C(=O)O[C@H]1C(=O)O[C@@H]2C[C@H]3C(C)=CC(=O)[C@@H](O)[C@]3(C)[C@H]3[C@@]4(O)OC[C@]32[C@@H]1[C@@H](C)[C@H]4O [GLAUCARUBINONE] | 0.168 (≈ 0.34 µM)
9 | CC[C@](C)(O)C(=O)O[C@H]1C(=O)O[C@@H]2C[C@H]3C(C)=C[C@H](O)[C@@H](O)[C@]3(C)[C@H]3[C@]4(O)OC[C@]32[C@@H]1[C@@H](C)[C@H]4O [GLAUCARUBIN] | 1.57 (≈ 3.16 µM)
10 | CC1=CC(=O)[C@@H](O)[C@]2(C)[C@H]3[C@]4(O)OC[C@]35[C@H]([C@@H](C)[C@H]4O)[C@@H](O)C(=O)O[C@@H]5C[C@@H]12 [GLAUCARUBOLONE] | 0.12 (≈ 0.304 µM)
11 | CC1=C[C@H](O)[C@@H](O)[C@]2(C)[C@H]3[C@@]4(O)OC[C@]35[C@H]([C@@H](C)[C@H]4O)[C@@H](O)C(=O)O[C@@H]5C[C@@H]12 [GLAUCARUBOL] | 2 (≈ 5.04 µM)
12 | Cc1cc2c(C(C)C)c(O)c(O)c(C=O)c2c(O)c1-c1c(C)cc2c(C(C)C)c(O)c(O)c(C=O)c2c1O [GOSSYPOL] | 0.00777 (≈ 0.015 µM)
13 | CC(=O)O[C@H]1C(=O)O[C@@H]2C[C@H]3C(C)=CC(=O)[C@@H](O)[C@]3(C)[C@H]3[C@]4(O)OC[C@]32[C@@H]1[C@@H](C)[C@H]4O [HOLACANTHONE] | 0.162 (≈ 0.371 µM)
14 | C[C@@H]1N=C[C@]23C[C@@H](O)[C@H]4[C@@H](CCC5=CC(=O)C=C[C@@]54C)[C@@H]2CC[C@H]13 [HOLANAMINE] | 3.96 (≈ 12.2 µM)
15 | C/C=C1/CN(C)CC[C@]23C(=O)C[C@@H]1[C@H]1CO[C@H](O)C(=O)N(c4ccccc42)[C@@H]13 [HOLSTIINE] | 24.8 (≈ 64.9 µM)
16 | C/C=C1\CN(C)CC[C@]23C(=O)C[C@@H]1[C@H]1CO[C@H](OC)C(=O)N(c4ccccc42)[C@@H]13 [HOLSTILINE] | 24.9 (≈ 62.9 µM)
17 | COc1ccc2cc1Oc1ccc(cc1)C[C@H]1c3c(cc(OC)c(O)c3Oc3cc4c(cc3OC)CCN(C)[C@@H]4C2)CCN1C [HOMOAROMOLINE] | 10.5 (≈ 17.3 µM)
18 | O=c1c(O[C@@H]2O[C@H](CO)[C@H](O)[C@H](O)[C@H]2O)c(-c2ccc(O)c(O)c2)oc2cc(O)cc(O)c12 [HYPEROSIDE] | 144 (≈ 309 µM)
19 | COc1cc2c3c(c1OC)Oc1ccc(cc1)C[C@H]1c4c(cc(OC)c5c4Oc4ccc(cc4O5)C[C@H]3N(C)CC2)CCN1C [INSULARINE] | 6.88 (≈ 11.3 µM)
20 | COc1cc2c3c(c1O)Oc1ccc(cc1)C[C@@H]1c4c(cc(OC)c(O)c4Oc4ccc(cc4)C[C@H]3N(C)CC2)CCN1C [ISOCHONDODENDRINE] | 10.5 (≈ 17.7 µM)

Row | Compound | IC50 [µg/mL]
21 | CN[C@H]1CC[C@@]2(C)C(=CC[C@H]3[C@@H]4CC[C@@H]5[C@H](C)N(C)C[C@@]54CC[C@@H]32)C1 [ISOCONESSIMINE] | 20.9 (≈ 61 µM)
22 | COc1ccc2c(c1O)-c1c(OC)c(OC)cc3c1[C@H](C2)N(C)CC3 [ISOCORYDINE] | 50.1 (≈ 147 µM)
23 | C/C=C1/CN2CC[C@]34c5ccccc5N(C(C)=O)[C@H]3[C@H](C=O)[C@H]1C[C@H]24 [ISORETULINAL] | 24.1 (≈ 71.8 µM)
24 | C/C=C1/CN2CC[C@]34c5ccccc5N(C(C)=O)C3[C@H](CO)[C@H]1C[C@H]24 (stereo not given in full) [ISORETULINE] | 21.9 (≈ 64.7 µM)
25 | C/C=C1/CN2CC[C@]34c5ccccc5N(C(C)=O)[C@H]3[C@H]([C@H]3OC[C@@H]5[C@H]6C[C@@H]7N(CC[C@@]78c7ccccc7N3[C@@H]58)C[C@H]6CC)[C@H]1C[C@H]24 [ISOSTRYCHNOBILINE] | 20.9 (≈ 33.8 µM)
26 | CC[C@H]1CN2CCC3c4ccc(O)c([C@@H]5CCCN5C)c4NC3[C@@H]2C[C@@H]1C[C@H]1c2[nH]c3ccccc3c2CCN1C (stereo not given in full) [ISOSTRYCHNOPENTAMINE] | 10.4 (≈ 18.8 µM)
27 | COc1ccc2cc1Oc1ccc(cc1)C[C@@H]1c3cc(c(OC)cc3CCN1C)Oc1c(OC)c(OC)cc3c1[C@H](C2)N(C)CC3 [ISOTETRANDRINE] | 13.8 (≈ 22.2 µM)
28 | COc1ccc2cc1Oc1ccc(cc1)C[C@H]1c3c(cc(OC)c4c3Oc3cc5c(cc3O4)CCN(C)[C@H]5C2)CCN1C [ISOTRILOBINE] | 6.22 (≈ 10.8 µM)
29 | C[C@H]1O[C@H](Oc2c(-c3ccc(O)cc3)oc3cc(O)cc(O)c3c2=O)[C@@H](O)[C@@H](O)[C@@H]1O [KAEMPFEROL-3-O-RHAMNOSIDE] | 64.7 (≈ 150 µM)
30 | C[C@H]1O[C@H](OC[C@H]2O[C@@H](Oc3c(-c4ccc(O)cc4)oc4cc(O)cc(O)c4c3=O)[C@H](O)[C@@H](O)[C@@H]2O)[C@@H](O)[C@@H](O)[C@@H]1O [KAEMPFEROL-3-O-RUTINOSIDE] | 72.5 (≈ 122 µM)
31 | C[C@H]1O[C@H](OC[C@H]2O[C@@H](Oc3cc(O)c4c(=O)c(O)c(-c5ccc(O)cc5)oc4c3)[C@H](O[C@@H]3O[C@H](CO)[C@@H](O)[C@H](O)[C@H]3O)[C@@H](O)[C@@H]2O)[C@@H](O)[C@@H](O)[C@@H]1O [KAEMPFEROL-7-O-RHAMNOSYL-SOPHOROSIDE] | > 125
32 | O=c1c(O)c(-c2ccc(O)cc2)oc2cc(O)cc(O)c12 [KAEMPFEROL] | 7.93 (≈ 27.7 µM)
33 | O=c1cc(-c2ccc(O)c(O)c2)oc2cc(O)cc(O)c12 [LUTEOLIN] | 17.8 (≈ 62.2 µM)
34 | O=C(O)/C=C/c1ccccc1O[C@@H]1O[C@H](CO)[C@@H](O)[C@H](O)[C@H]1O [MELILOTOSIDE] | 12.5 (≈ 38.3 µM)
35 | COC(=O)C1=CO[C@@H](O[C@@H]2O[C@H](CO)[C@@H](O)[C@H](O)[C@H]2O)[C@H]2[C@@H]1C=C[C@@]21C=C(C(O)c2ccc(O)c(OC)c2)C(=O)O1 (stereo not given in full) [METHOXY-GAERTNEROSIDE] | 2.3 (≈ 3.98 µM)
36 | CO[C@H]1[C@H](O)[C@@H](O)[C@@H](O)[C@H](O)[C@@H]1O [METHYLINOSITOL] | 16.6 (≈ 85.4 µM)
37 | COc1ccc(/C=C/C(=O)O[C@H]2[C@@H]3C=CO[C@@H](O[C@@H]4O[C@H](CO)[C@@H](O)[C@H](O)[C@H]4O)[C@@H]3[C@@]3(CO)O[C@@H]23)cc1O [MINECOSIDE] | 0.398 (≈ 0.739 µM)
38 | O=c1c(O)c(-c2cc(O)c(O)c(O)c2)oc2cc(O)cc(O)c12 [MYRICETIN] | 115 (≈ 362 µM)
39 | O=C1C[C@@H](c2ccc(O)cc2)Oc2cc(O)cc(O)c21 [NARINGENIN] | 92.2 (≈ 339 µM)
40 | C/C=C1/CN2CCc3c(n(C)c4ccccc34)[C@@H]2C[C@@H]1Cc1nccc2c1[nH]c1ccccc12 [NBETA-METHYL USAMBARENSINE] | 4.12 (≈ 9.23 µM)

Row | Compound | IC50 [µg/mL]
41 | COc1cc2c3c(c1O)-c1c(ccc(OC)c1OC)C[C@@H]3NCC2 [NORCORYDINE] | 50 (≈ 153 µM)
42 | C/C=C1/CN2CC[C@]34c5ccccc5N(C(C)=O)[C@H]3[C@H](COC(C)=O)[C@H]1C[C@H]24 [O-ACETYLISORETULINE] | 23.2 (≈ 61.1 µM)
43 | COc1cc2c3cc1Oc1c(O)c(OC)cc4c1[C@@H](Cc1ccc(O)c(c1)Oc1ccc(cc1)C[C@@H]3N(C)CC2)N(C)CC4 [OBAMEGINE] | 18.3 (≈ 30.8 µM)
44 | CC[C@H]1CN2CCC3c4ccccc4NC3[C@@H]2C[C@@H]1C[C@H]1NCCc2c1[nH]c1ccccc21 (stereo not given in full) [OCHROLIFUANINE A] | 1.3 (≈ 2.95 µM)
45 | COc1cc(O)c2c(=O)c(O)c(-c3ccc(OC)c(O)c3)oc2c1 [OMBUINE] | 70.3 (≈ 213 µM)
46 | COc1ccc2cc1Oc1ccc(cc1)C[C@@H]1c3cc(c(OC)cc3CCN1C)Oc1c(OC)c(OC)cc3c1[C@@H](C2)N(C)CC3 [PHAEANTHINE] | 10.8 (≈ 17.4 µM)
47 | COc1cc(O)c2c(c1)C(=O)c1cc(C)cc(O)c1C2=O [PHYSCION] | 12.7 (≈ 44.7 µM)
48 | O=C1C[C@@H](c2ccccc2)Oc2cc(O)cc(O)c21 [PINOCEMBRIN] | 80.8 (≈ 315 µM)
49 | COc1cc(O)c2c(c1)O[C@H](c1ccccc1)CC2=O [PINOSTROBIN] | 184 (≈ 682 µM)
50 | CC[C@H]1CN2CCc3cc(OC)c(OC)cc3[C@@H]2C[C@@H]1CC1=NCCc2cc(O)c(OC)cc21 [PSYCHOTRINE] | 8.19 (≈ 17.6 µM)
51 | COC1=C[C@@H](C)[C@@H]2C[C@H]3OC(=O)C[C@H]4C(C)=C(OC)C(=O)[C@H]([C@@]2(C)C1=O)[C@@]34C [QUASSIN] | 0.5 (≈ 1.29 µM)
52 | C[C@H]1O[C@H](Oc2c(-c3ccc(O)c(O)c3)oc3cc(O)cc(O)c3c2=O)[C@@H](O)[C@@H](O)[C@@H]1O [QUERCETIN-3-O-RHAMNOSIDE] | 84.7 (≈ 189 µM)
53 | O=c1c(O)c(-c2ccc(O)c(O)c2)oc2cc(O)cc(O)c12 [QUERCETIN] | 114 (≈ 378 µM)
54 | C=C[C@H]1CN2CC[C@H]1C[C@@H]2[C@@H](O)c1ccnc2ccc(OC)cc12 [QUINIDINE] | 16.6 (≈ 51.2 µM)
55 | C=C[C@H]1CN2CC[C@H]1C[C@@H]2C(=O)c1ccnc2ccc(OC)cc12 [QUINIDINONE] | 7.4 (≈ 23 µM)
56 | C=C[C@H]1CN2CC[C@H]1C[C@H]2[C@H](O)c1ccnc2ccc(OC)cc12 [QUININE] | 14.8 (≈ 45.6 µM)
57 | C/C=C1/CN2CC[C@]34c5ccccc5N(C(C)=O)[C@H]3[C@@H](C=O)[C@@H]1C[C@H]24 [RETULINAL] | 25.2 (≈ 74.9 µM)
58 | C/C=C1\CN2CC[C@]34c5ccccc5N(C(C)=O)[C@H]3[C@@H](CO)[C@H]1C[C@H]24 [RETULINE] | 21.9 (≈ 64.7 µM)
59 | O=c1c(O[C@@H]2OC[C@@H](O)[C@H](O)[C@H]2O)c(-c2ccc(O)c(O)c2)oc2cc(O)cc(O)c12 [REYNOUTRIN] | 109 (≈ 251 µM)
60 | COC1=C[C@]23CCN(C)[C@H](Cc4ccc(OC)c(O)c42)C3=CC1=O [SALUTARIDINE] | 50 (≈ 153 µM)
